This note sets out measurements from paper PMC11855866 (International Journal of Molecular Sciences, 2025).

Where two headings read alike, the source gives them in different places.

For data set [1], the system named is HMEC-1 cells. The data set can be described thus: MTT cytotoxicity / synergy assay, 72 h, HMEC-1. Conditions: Homo sapiens, HMEC-1, 72 h, read-out: IC50 Value in Specific Cell Line, HMEC-1.
Description: (§3) The synergistic effects of drug combinations were studied in various cancer cell lines, including MCF-7 (human breast cancer), A549 (human lung cancer), U-87 MG (human malignant glioma), HepG2 (human liver cancer), and HUH7 (human liver cancer). HMEC-1, an immortalized human microvascular endothelial cell line, was used as a model for normal cells. All cell lines were purchased from ATCC (Rockville, MD, USA).
(§4) The cancer cell lines were cultured in Dulbecco’s Modified Eagle’s Medium (DMEM; Sigma-Aldrich) supplemented with 10% FBS and 1% penicillin/streptomycin mixture (10,000 U/mL penicillin and 10 mg/mL streptomycin; Sigma-Aldrich) at 37 °C in a humidified atmosphere with 5% CO2.
(§5) For the MTT assay, exponentially growing cells were seeded into 96-well plates at a density of 5 × 10³ cells per well. After 24 h of incubation, the medium was replaced with 100 µL of fresh medium containing the tested compounds. After 72 h of treatment, cell viability was assessed using the MTT assay as described earlier. […] IC50 values were calculated using GraphPad Prism 9 software (GraphPad Software).
The test system of data set [2] is U-87MG cells. Briefly: MTT cytotoxicity / synergy assay, 72 h, U-87MG. It counts as cell-based. The note with it: Homo sapiens, n.d. = IC50 not achieved within concentrations tested, read-out: IC50 Value in Specific Cell Line, U-87MG.
Description: as §3, §4, §5
A short description of data set [3]: Hemolysis (Drabkin's method). It is filed as cell-based. Conditions: human, washed erythrocyte (RBC) suspension, 40% hematocrit, pH 7.4, single drug, RT, dark, CTRL− 11.6%. The protocol: Blood samples were collected from healthy human volunteers into Vacutainer tubes containing 3% sodium citrate (BD Biosciences, Warsaw, Poland). Whole blood was centrifuged at 1500 rpm (RCF = 214 g) for 10 min in a CompactStar CS4 centrifuge (VWR) at RT to separate erythrocytes, which were washed twice with PBS (pH 7.4) and centrifuged at 1500 rpm for 5 min at RT after each wash. Hematocrit was measured to adjust the final RBC concentration in PBS (pH 7.4) to 40%. The drugs were then dissolved in the RBC suspension at the final concentrations outlined in Figure 8. RBCs incubated in dH2O were used as a positive control (100% hemolysis), while RBCs in PBS were used as the negative control. A blank sample of PBS without RBCs or drugs provided a baseline for absorbance measurements. Experimental samples, along with positive, negative, and vehicle (0.5% DMSO) controls, were incubated for 4 h at RT in the dark. After incubation, the samples were centrifuged at 1500 rpm for 5 min at RT, and the supernatant was collected to measure hemoglobin release using Drabkin’s method. Absorbance was measured at 540 nm with a Jenway 6305 UV/Vis spectrophotometer (Bibby Scientific, Staffordshire, UK). This study was conducted in triplicate. The percentage of hemolysis was calculated by comparing the absorbance at 540 nm (OD540) of the test sample with that of the positive control using the following formula:(2) % Hemolysis=OD540Test−OD540(Blank)/OD540Total Lysis−OD540(Blank)×100%

In data set [4] the test system is MCF-7 cells. The data set can be described thus: MTT cytotoxicity / synergy assay, 72 h, MCF-7. It counts as cell-based, human. The note with it: 72 h. Here is the method:
(§1) Stock solutions of the tested compounds were first prepared in DMSO at 200-fold the intended final concentration. […] The cells were treated for 72 h under the same conditions.
(§2) Following treatment, 25 μL of MTT solution was added to each well, and the plates were incubated for 2 h at 37 °C. […] IC₅₀ values, indicating the concentration required to reduce cell viability by 50% compared to untreated controls (set as 100% viability), were calculated using GraphPad Prism 9 software (GraphPad Software, San Diego, CA, USA). All data from this preliminary cytotoxic assay were analyzed by ANOVA followed by Tukey’s post hoc test for multiple comparisons, with significance set at p < 0.05. A similar statistical approach was used for the rest of the experimental work presented in this study.

Data set [5] in a line: MTT cytotoxicity / synergy assay, 72 h, MCF-7. It is filed as cell-based, human. Conditions: human, MCF-7 cells. The protocol:
as §1, §2

The nature of data set [6]: DLS particle size measurements. It is filed as physicochemical. Here is the method:
Dynamic light scattering (DLS) measurements were performed using a Zetasizer Nano ZS instrument (Malvern Instruments, Malvern, UK). Samples of 2 mL were placed in disposable PMMA cuvettes (cat. #634-0677; VWR, Gdańsk, Poland) and measured at 37 °C. To ensure accuracy, each sample was measured at least three times. The data were processed using DTS v6.2 software (Malvern Instruments).

As for `CCC1=C(C)CN(C(=O)NCCc2ccc(S(=O)(=O)NC(=O)N[C@H]3CC[C@H](C)CC3)cc2)C1=O` [GLIM, Glimepiride], in data set [1], the CC50 is 136 ± 5.1 µM. In addition, the IC50 (as a rule, the midpoint of a concentration-inhibition curve) was 186 µM in data set [2] and 175 µM in data set [4] (Homo sapiens, MCF7, 72 h, MTT, n.d. = IC50 not achieved within concentrations tested, read-out: IC50 Value in Specific Cell Line, MCF-7). The same compound had a hemolysis at 4 h in data set [3] of 11.2 to 11.9%. In data set [4] (with vs. without 0.05% Tween-80), the “decrease in cell viability caused by 0.05% Tween-80” value was determined as 24.6%. The viability (commonly a read-out of living cells in per cent, often relative to untreated cells) at 72 h turned out to be 71.2% in data set [5] (0.05% Tween-80, read-out: MCF-7 viability with 0.05% Tween-80) and 95.9% in data set [5] (before addition of 0.05% Tween-80, read-out: MCF-7 viability without Tween-80). Besides, the “d¯I of drug aggregates” value in data set [6] (PBS pH 7.4, 37 °C, […] BSA, GLIM beyond 200 µM) was “approx. 353 nm”. Further, in data set [6] (absence of BSA, buffers and culture media), the diameter of aggregates entry is listed as “over 300 nm”.
